Results as given in patent US10253251B2, “Nanomatrix separation of chromophores and uses thereof in luminescent devices” (RAMOT AT TEL-AVIV UNIVERSITY LTD., priority 2010, dated 2019).
Several values for one entry are separate records, joined by “and”; a condition that tells them apart may be missing. Identical values can stand only once.

Tests used:
[1] = Binding/dissolution of hydrophobic ligands by oligosaccharide: β-cyclodextrin; details: dissolved ligand divided by amount of oligosaccharide
Description: (§1) The subsequent series of complementary experiments was designed to examine capabilities of different size oligosaccharides to bind selected hydrophobic ligands.
(§2) Representative oligosaccharides, including β-cyclodextrin, starch, arabic acid and lactose, were incubated with C60, according to the described above protocol for the BSM complexes preparation. […] Therefore, it is believed that interactions between the saccharide residues and the polypeptide backbone in a sugar-substituted polypeptide dictate certain arrangements of the saccharide moieties in space, and these arrangements play a role in the complexation of various hydrophobic materials.
The subsequent series of complementary experiments was designed to examine capabilities of different size oligosaccharides to bind selected hydrophobic ligands. Representative oligosaccharides, including β-cyclodextrin, starch, arabic acid and lactose, were incubated with Ant, Bap and Cor ligands, according to the described above protocol for the BSM complexes preparation. The LUP values were calculated by dividing the amount of the dissolved ligand by the amount of the oligosaccharide present in the complex (if formed). No clear preference was for binding of particular ligands to certain oligosaccharides. In comparison to BSM, the dissolution capability of arabic acid was drastically lower for all tested ligands. […]

[2] = Binding/dissolution of hydrophobic ligands by oligosaccharide: starch; details: dissolved ligand divided by amount of oligosaccharide
Description: as §1, §2
(§3) The subsequent series of complementary experiments was designed to examine capabilities of different size oligosaccharides to bind selected hydrophobic ligands. Representative oligosaccharides, including β-cyclodextrin, starch, arabic acid and lactose, were incubated with Ant, Bap and Cor ligands, according to the described above protocol for the BSM complexes preparation. The LUP values were calculated by dividing the amount of the dissolved ligand by the amount of the oligosaccharide present in the complex (if formed). No clear preference was for binding of particular ligands to certain oligosaccharides. In comparison to BSM, the dissolution capability of arabic acid was drastically lower for all tested ligands. It was practically negligible in the cases of lactose, β-cyclodextrin and starch (Table 1).

[3] = tested on: deglycosylated form of BSM (dBSM); assay: Loading capacity of deglycosylated BSM (dBSM) for hydrophobic ligands; format: binding, bovine; details: for dBSM NBL (number of bound ligands per dBSM monomer) / dBSM UP (%): deglycosylated BSM
Description: To evaluate this assumption, a deglycosylated form of BSM (dBSM) was prepared and repeated binding experiments with this modified protein were carried out. Complexes of C60 with dBSM were prepared as described above for the complexation with BSM.
dBSM was prepared by base-catalyzed β-elimination of periodate-oxidized glycans, using method reported by Kim and coworkers.
A deglycosylated form of BSM (dBSM) was prepared and the binding experiments with this protein were repeated. Complexes of Ant, Bap and Cor ligands with dBSM were prepared as described above for the complexation with BSM. dBSM was prepared as described above in the context of fullerene, nanotubes, and inorganic nanostructures.
A solution of BSM protein (100 mg) in NaOH (0.1 M, 10 mL) was stirred at room temperature for 30 min. The resulting solution was cooled to 4° C. NaIO4 (100 mM) in acetate buffer (100 mM, pH 4.5) was added and the mixture was stirred overnight at 4° C. After that time, glycine (200 mg) was added and the reaction mixture was allowed to warm to room temperature and was stirred for 30 min. NaOH (1.0 M, 1 mL) was added and the solution was stirred for an additional 30 min. The resulting solution was dialyzed against deionized water overnight and was then centrifuged and lyophilized. The degree of deglycosylation was measured by using a standard periodic acid/Schiff assay (Sigma-Aldrich).
(§4) To a solution of BSM or deglycosylated BSM protein (4 mg mL^−1, 1.5 mL) in sodium phosphate buffer (2 mM, pH 7.2) a solid ligand (1 mg) was added at room temperature and the mixture was stirred at 500-700 rpm for 48 hrs. After that time, the reaction mixture was filtered through a 0.45 μm filter and the solution was loaded on a Sephadex G-25 gel-permeation column (Pharmacia Biotech). Protein complexes were eluted with a sodium phosphate buffer (20 mM, pH 7.2) and elution was monitored by UV-vis spectroscopy.
(§5) The amount of BSM or deglycosylated BSM protein in complexes was determined by using a standard periodic acid/Schiff assay (Sigma-Aldrich). The amount of a ligand in each complex was determined by UV-vis spectroscopy after protein hydrolysis and quantitative extraction of the ligand by chloroform. To a sample of complex in a sodium phosphate buffer (1 mL, 20 mM, pH 7.2), chloroform (1 mL) and hydrochloric acid (1 mL, 12 M) were added at room temperature. The reaction mixture was sealed in a glass pressure vessel and heated at 80° C. with vigorous stirring for 3 hrs. After cooling to a room temperature, the organic phase containing extracted ligand was analyzed by UV-vis spectroscopy.

[4] = tested on: Bovine Submaxillary Mucin (BSM); assay: Loading capacity of BSM glycoprotein for hydrophobic ligands (ligand uptake); format: binding; details: for BSM NBL (average number of bound ligands per BSM monomer): LUP multiplied by BSM monomer-to-ligand molecular weight ratio; for BSM LUP (ligand uptake percentage, ligand-to-BSM weight ratio): extracted ligand (hydrolysis-extraction, UV-vis) divided by BSM protein (PAS assay)
Text: In order to determine the loading capacity of BSM glycoprotein for the examined ligands, elemental analysis measurements were preformed. The carbon content of each complex (in the case of C60 and MWNT containing complexes) was compared to the carbon content found in the native BSM. This was used to determine the amount of ligand in the complex and by that, the mucin-ligand weight ratio (ligand uptake percentage—LUP, Table 1).
In this procedure, the amount of the BSM protein in the mucin complex was analyzed by a periodic acid/Schiff (PAS) assay.
In more detail, in order to determine the amount of C60, a hydrolysis-extraction process was used which included heating of the complex in a heterogeneous mixture of hydrochloric acid and chloroform at 80° C., in a sealed vessel, and then the amount of a chloroform-extracted ligand was determined by UV-vis spectroscopy.
Additional calculation determined the average number of bound ligand (NBL) per BSM monomer by multiplication of the LUP value by the BSM monomer-to-ligand molecular weight ratio (Eq. 2).
In order to ascertain the capacity of BSM glycoprotein for various ligands, the amounts of Ant, Bap and Cor ligands in corresponding BSM complexes were determined. The amount of the BSM protein in each BSM complex was analyzed by a periodic acid/Schiff (PAS) assay.
In order to determine the amount of ligand in each complex, the above-described hydrolysis-extraction process was employed and determined the amount of chloroform-extracted ligand by UV-vis spectroscopy.
The LUP values were calculated by dividing the amount of the extracted ligand by the amount of the BSM protein present in the complex. […] The average number of bound ligands (NBL) per BSM monomer was also calculated by multiplication of the LUP value by the BSM monomer-to-ligand molecular weight ratio, as discussed above.
as §4, §5

[5] = Incubation of representative oligosaccharides with C60, detection in solution by UV-vis or SEC-HPLC; format: physicochemical; details: β-cyclodextrin, starch, arabic acid and lactose
Description: as §1, §2

[6] = Binding/dissolution of hydrophobic ligands by oligosaccharide: arabic acid; details: dissolved ligand divided by amount of oligosaccharide
Description: as §1, §2, §3

Row | SMILES | β-Cyclodextrin LUP [1] | Starch LUP [2] | uptake capacity of dBSM, ligands per monomer [3] | dBSM NBL (number of bound ligands per dBSM monomer) [3] | dBSM UP (%) [3] | average number of bound ligand (NBL) per BSM monomer [4] | BSM NBL (average number of bound ligands per BSM monomer) [4] | BSM LUP (ligand uptake percentage, ligand-to-BSM weight ratio) [4] | C60 detected in the solution after incubation with oligosaccharides [5] | Arabic Acid LUP [6] | BSM LUP (ligand uptake percentage, ligand-to-BSM weight ratio) ([4]; listed as Coronene)
1 | c12c3c4c5c1c1c6c7c2c2c8c3c3c9c4c4c%10c5c5c1c1c6c6c%11c7c2c2c7c8c3c3c8c9c4c4c9c%10c5c5c1c1c6c6c%11c2c2c7c3c3c8c4c4c9c5c1c1c6c2c3c41 [Ligand C60, C60] | 0.12 ± 0.02% | 0.35 ± 0.07% | 2 ligand molecules per monomeric unit | 1.9 ± 0.1 | 1.4% and 1.41 ± 0.28% | 40 ligands per monomeric unit of BSM | 36 ± 6 | 15.1% and 15.1 ± 2.4% | no C60 was detected |  | 
2 | c1cc2ccc3ccc4ccc5ccc6ccc1c1c2c3c4c5c61 [Cor, coronene] |  | 0.18 ± 0.04% |  | 2.1 ± 0.2 | 0.61 ± 0.12% |  | 44 ± 9 | 7.8 ± 1.5% |  | 0.18 ± 0.04% | 7.7%
3 | c1ccc2c(c1)cc1ccc3cccc4ccc2c1c34 [Bap, benzo[a]pyrene] |  | 0.11 ± 0.02% |  | 1.2 ± 0.2 | 0.23 ± 0.05% |  | 36 ± 8 | 5.4 ± 1.1% |  | 0.09 ± 0.02% | 
4 | c1ccc2cc3ccccc3cc2c1 [Ant, anthracene] |  |  |  | 2.2 ± 0.3 | 0.28 ± 0.06% |  | 43 ± 9 | 4.5% and 4.5 ± 0.9% |  | 0.56 ± 0.11% | 
